Laboratory results reported in paper PMC7326642 (Current computer-aided drug design, 2021).

Tests used:
[1] = biological target: Cyclin A2-CDK2 kinase enzyme (Homo sapiens, UniProt P20248+P24941); assay: ADP-Glo Kinase Assay, screening at 0, 1 and 10 μM; format: biochemical; settings: for kinase activity reduced to: remaining CDK2 kinase activity
cyclin A2-CDK2 complex = cyclin A2-CDK2 complex (Homo sapiens, UniProt P20248+P24941); assay: dose response in the in vitro biochemical kinase assay; settings: 0 nM to 100 μM, room temperature

Row | SMILES | effect on kinase activity (in words) ([1]; 10 μM compound) | other results
1 | NC(=O)c1c(Nc2ccc(Br)cc2)[nH]c(=O)[nH]c1=O [NSC73381] | weakly activated CDK2 activity | –
2 | N#Cc1c(N)nc(N)nc1Nc1ccc(Br)cc1 [compound 1] | – | IC50 (cyclin A2-CDK2 complex): 6.5 µM; effect on kinase activity (in words) ([1]; 1 μM compound): no significant effect; kinase activity reduced to ([1]; 10 μM compound): 58%
3 | Cc1cc(Br)ccc1Nc1nc(N)nc(N)c1N=O [NSC66578] | weakly activated CDK2 activity | –
4 | Cc1ccc(Nc2nc(N)nc(N)c2N=O)cc1 [NSC49876] | weakly activated CDK2 activity | –
5 | N#Cc1c(Nc2ccc(Br)cc2)[nH]c(=O)[nH]c1=O [NSC73380] | weakly activated CDK2 activity | –
6 | CCc1c(N)nc(N)nc1Nc1ccc(Cl)c(Cl)c1 [NSC50590] | weakly activated CDK2 activity | –
7 | NC(=S)c1cn(C2OC(CO)C(O)C2O)c2ncnc(N)c12 (centres unmarked) [compound 2] | did not further reduce the kinase activity | IC50 (cyclin A2-CDK2 complex): 0.0076 µM; kinase activity reduced to ([1]; 1 μM compound): 43%
